{
  "source": "patent US11197865B2",
  "about": "“Applications for promethazine in preparing anti-liver cancer and/or colon cancer and/or lung cancer products” (SHANGHAI JIAO TONG UNIVERSITY, priority 2015, dated 2021)",
  "type_in_all_cases": "cell-based",
  "key": {"[1]": {"system": "LoVo colon cancer cells", "assay": "CellTiter-Glo luminescent cell viability assay, LoVo colon cancer cells", "settings": "Homo sapiens, 72 hours", "description": "(§1) In example 1, CELLTITER-GLO was used to test promethazine against liver cancer and/or colon cancer. n) HUH-7 cells and LoVo cells were handled as described above, and HUH-7 96-well cell culture plates and LoVo 96-well cell culture plates were obtained, respectively. The complete medium for LoVo cells was DMEM (a live product), Cat #11995081, with a cells/well density of 8000. 2. […] The final concentrations (μM) of the analyte drug in wells 2-10 in FIG. 1 are, in order: 100, 31.64557, 10.01442, 3.16912, 1.002886, 0.317369, 0.100433, 0.031783, 0.010058; B. CELLTITER-GLO Luminescent Cell Viability Assay System a) Before testing, the HUH-7 96-well drug screening plate and the LoVo 96-well drug screening plate described in 3 above were stabilized to room temperature for 20-30 minutes. c) 100 μl of CellTiter-Glo reagent (prepared as described in 1 above) was added to all drug screening plates and mixed evenly. d) It was thoroughly oscillated in a 96-well microplate oscillator for 2 minutes to allow the cells to undergo full lysis. e) It was stored away from light at room temperature for 15 minutes before carrying out luminescent signal detection to ensure signal stability. f) An EnSpire multi-function plate reader was used at 570 nm to read the luminescent signals. g) Data was processed and analyzed."}, "[2]": {"system": "HUH-7 liver cancer cells", "assay": "CellTiter-Glo luminescent cell viability assay, HUH-7 liver cancer cells", "settings": "Homo sapiens, 72 hours", "description": "as §1, with “for HUH-7” for “for LoVo”, “of 6000.” for “of 8000.”"}, "[3]": {"system": "NCI-H2141 lung cancer cells", "assay": "CellTiter-Glo luminescent cell viability assay, NCI-H2141 lung cancer cells", "settings": "72 hours"}, "[4]": {"system": "SKOV-3 human ovarian cancer cells", "assay": "CellTiter-Glo luminescent cell viability assay, SKOV-3 ovarian cancer cells", "settings": "SK-OV-3, SKOV-3 cells, 72 hours"}, "[5]": {"system": "NCI-H661 large-cell lung cancer cells", "assay": "CellTiter-Glo luminescent cell viability assay, NCI-H661 large-cell lung cancer cells", "settings": "Homo sapiens, 72 hours"}},
  "data": [
    {"smiles": "CC(CN1c2ccccc2Sc2ccccc21)N(C)C", "note": "(stereo not shown) [promethazine]", "values": [
      {"measurement": "IC50", "setting": "[1]", "value": 33.5, "unit": "µM"},
      {"measurement": "EC50", "setting": "[2]; FIG. 2, liver cancer (HUH-7)", "value": 42, "unit": "µM"},
      {"measurement": "IC50", "setting": "[2]; HUH-7 cells", "value": 31.4, "unit": "µM"},
      {"measurement": "EC50", "setting": "[3]; FIG. 4, lung cancer (NCI-H2141)", "value": 33.9, "unit": "µM"},
      {"measurement": "IC50", "setting": "[3]; NCI-H2141 cells", "value": 34.6, "unit": "µM"},
      {"measurement": "IC50", "setting": "[4]", "value": "≥ 100", "unit": "µM"},
      {"measurement": "IC50", "setting": "[5]", "value": "≥ 100", "unit": "µM"}
    ]}
  ]
}
